The values that follow come from patent publication US7622480B2, “Azaindolylpiperidine derivatives as antihistaminic and antiallergic agents” (Laboratorios Almirall S.A., priority 2002, dated 2009).

pIC50: −log10 of the molar value.

For one data set, the target named is T1, histamine H1 receptor (Cavia porcellus, UniProt P31389).
T1 construct: performed in guinea pig cerebellum membranes as described previously; from tissue; host or cells: guinea pig cerebellum membranes
The experiment in a line: Histamine-H1 receptor binding assay. The note with it: guinea pig cerebellum membranes, 0.7 nM [3H]-mepyramine, 30 min at 30° C. How it is done: (1) In vitro histamine H1 receptor binding assay, to measure the affinity of the compounds. […] Briefly, the membrane suspensions (160 μg/ml) were incubated at 30° C. with 0.7 nM [^3H]-mepyramine and different concentrations of the test compounds in a final volume of 250 μl. Binding reactions were terminated by filtration after 30 min of incubation and the bound radioactivity was determined. The non-specific binding was measured in the presence of 10 μM of promethazine. The affinity of each test compound to the receptor was determined by using at least six different concentrations run in duplicate. IC50 values were obtained by non-linear regression by use of SAS on a DEC AXP computer.

Data set [1] concerns Histamine-induced skin vascular permeability in rats. The experiment in a line: Histamine-induced skin vascular permeability in rats. To be noted: Rattus norvegicus, 4 h; Male Wistar rats, oral, dose of 3 mg/Kg, four hours after administration, compared with vehicle treated group. It counts as in vivo. How it is done: Either one, four, eight or 24 hours later the rats were lightly anaesthetized with ether and a cutaneous reaction was induced by two intradermal injections of 50 μl of histamine (100 μg/ml) onto the back, followed by a intravenous injection of 3 ml/kg of Evan's Blue (5 mg/ml), both dissolved in saline. Sixty minutes later, the rats were killed by cervical dislocation and the back skin dissected free. The diameter (in millimetres) of the papule was measured in two directions and the area was calculated.

T1 sequence (P31389 whole entry): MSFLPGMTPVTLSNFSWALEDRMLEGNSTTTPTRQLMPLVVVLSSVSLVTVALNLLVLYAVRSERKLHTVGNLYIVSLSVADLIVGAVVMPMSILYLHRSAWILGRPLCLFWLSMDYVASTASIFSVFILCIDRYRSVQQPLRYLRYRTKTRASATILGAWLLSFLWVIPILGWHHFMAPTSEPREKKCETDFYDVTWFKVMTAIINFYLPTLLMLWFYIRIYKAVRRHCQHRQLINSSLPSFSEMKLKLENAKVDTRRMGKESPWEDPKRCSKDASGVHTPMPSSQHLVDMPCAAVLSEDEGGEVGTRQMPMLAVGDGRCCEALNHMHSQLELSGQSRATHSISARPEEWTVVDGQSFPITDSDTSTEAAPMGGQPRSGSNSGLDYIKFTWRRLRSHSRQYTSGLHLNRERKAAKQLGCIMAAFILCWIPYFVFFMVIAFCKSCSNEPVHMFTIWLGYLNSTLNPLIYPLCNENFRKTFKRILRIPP

By pIC50 is commonly meant the IC50 on a negative log10 scale, so that one unit is a factor of ten. Low readings indicate a high IC50, high ones a low IC50. One may read the inhibition in vivo as how much of the control response was suppressed. Lower therefore signals a weak effect. Regarding `COc1ccc(CN2CCC(c3cn(Cc4ccc(Cl)s4)c4ncccc34)CC2)cc1C(=O)O` [Example 19, 5-{4-[1-(5-chlorothiophen-2-ylmethyl)-1H-pyrrolo[2,3-b]pyridin-3-yl]-piperidin-1-ylmethyl}2-methoxybenzoic acid], the pIC50 at histamine H1 receptor was 6.30. Besides, the inhibition in vivo at 3 mg/kg in data set [1] was > 50%.

`CCCCn1cc(C2CCN(Cc3ccc(OC)c(C(=O)O)c3)CC2)c2cccnc21` [Example 24, 5-[4-(1-butyl-1H-pyrrolo[2,3-b]pyridin-3-yl)piperidin-1-ylmethyl]-2-methoxybenzoic acid] showed a pIC50 at histamine H1 receptor of 6.32. Besides, the inhibition in vivo at 3 mg/kg in data set [1] is > 50%.

Regarding `CCCCn1cc(C2CCN(CCOc3ccccc3C(=O)O)CC2)c2cccnc21` [Example 25, 2-{2-[4-(1-butyl-1H-pyrrolo[2,3-b]pyridin-3-yl)piperidin-1-yl]-ethoxy}-benzoic acid], the negative logarithm of the IC50 (pIC50) at histamine H1 receptor was 6.63. Further, in data set [1], the inhibition in vivo at 3 mg/kg is > 50%.

On to `CCOCCn1cc(C2CCN(CCOc3cc(OC)ccc3C(=O)O)CC2)c2cccnc21` [Example 36, 2-(2-{4-[1-(2-ethoxyethyl)-1H-pyrrolo[2,3-b]pyridin-3-yl]-piperidin-1-yl}-ethoxy)-4-methoxybenzoic acid], for which the pIC50 on histamine H1 receptor was 6.80. For the same compound, the inhibition in vivo at 3 mg/kg in data set [1] is > 50%.

For orientation: melting point means the temperature, or range, at which the solid turns liquid. The compound `O=C(O)c1ccc(Cl)cc1OCCN1CCC(c2cn(Cc3ccoc3)c3ncccc23)CC1` [Example 44, 4-chloro-2-{2-[4-(1-furan-3-ylmethyl-1H-pyrrolo[2,3-b]pyridin-3-yl)-piperidin-1-yl]-ethoxy}-benzoic acid] came in with a melting point of 81.6 to 83.3 °C. Also, the pIC50 at histamine H1 receptor was 7.15. Besides, in data set [1], the inhibition in vivo at 3 mg/kg was > 50%.

Turning to `CCCCn1cc(C2CCN(CCOc3cc(OC)ccc3C(=O)O)CC2)c2cccnc21` [Example 61, 2-{2-[4-(1-butyl-1H-pyrrolo[2,3-b]pyridin-3-yl)piperidin-1-yl]-ethoxy}-4-methoxybenzoic acid], on histamine H1 receptor, the pIC50 is 7.00. In data set [1], the inhibition in vivo at 3 mg/kg is > 50%.
